{"source": "patent US11866431B2", "about": "“Bicyclic compounds” (Vivace Therapeutics, Inc., priority 2018, dated 2024)"}
{"tested_on": "8XTBD luciferase reporter (YAP reporter) in HEK293T cells", "test": "YAP Reporter Assay", "assay_type": "cell-based", "details": "Homo sapiens, HEK-293T, 24 h, read-out: Firefly Luciferase IC50 (μM)", "procedure": "(§1) HEK293T cells stably transfected with 8XTBD luciferase reporter and pRLTK in 384-well plates were treated with the test compounds, starting from 3 μM (final concentration in assay plate), 1:3 dilution, and 10 points in quadruplicates. Post 24-hr incubation with compounds at 37° C. and 5% CO2, cells were lysed and 8XTBD-driven firefly luciferase and control TK-driven renilla luciferase activities were measured using Promega Dual-Luciferase Reporter Assay System.\n(§2) Reagents: The reagents used for this study are: DMEM: Invitrogen #11960077, Dual-Glo Luciferase Assay System: Promega-E2980, Puromycin Dihydrochloride: Invitrogen-A1113803, 384-well plate: PerkinElmer-6007480, L-GLUTAMINE: Invitrogen-25030164, Hygromycin B: Invitrogen-10687010, and Penicillin-Streptomycin: Merk-TMS-AB2-C\n(§3) Media: The media used for this assay were: Culture Medium: DMEM+1 ug/mL puromycin+200 ug/mL hygromycin (with 10% FBS+1 mM L-glutamine); and Assay Medium: DMEM (with 10% FBS+1 mM L-glutamine+1×P/S).\n(§4) Cell Plating: The appropriate media was warmed at 37° C. by water bath: Culture Medium, Assay Medium, 1*D-PBS, 0.05% trypsin-EDTA. The cells were trypsinized after removing all media, then washed with 1*sterile D-PBS and then with 2 ml 0.05% trypsin-EDTA. The cells were then incubated at RT for one minute. Then 10 ml/75 cm2 flask Assay Medium was added to each flask. Using a 10 ml pipette, the cells were then gently resuspended in the media, until the clumps completely disappeared. The cells were then transferred into 50 ml centrifuge tubes and were centrifuged at 800 rpm for 5 mins. The medium was removed and the cells were resuspended with Assay Medium. An aliquot of cells was used to count the cell density (cells/ml). The cell suspension was then diluted with Assay Medium to a concentration of 6×10^4 cells/ml. 50 ul cells suspension was then plated to 384-well plate (PerkinElmer-6007480), 3×10^3 cells/well and the cells were incubated in an incubator at 37° C. 5% CO2.\n(§5) Compound Treatment: In the afternoon (incubation of the plate with 3-4 hrs), the test compounds were added by Echo, starting from 3 uM (final concentration in the assay plate), 1:3 dilution, 10 points, quadruplicates. The plate was placed at 37° C. 5% CO2 incubator for 24 hrs.\n(§6) Detection: The Dual-Glo Luciferase Reagent was prepared by transferring the contents of one bottle of Dual-Glo Luciferase Buffer to one bottle of Dual-Glo Luciferase Substrate to create the Dual-Glo Luciferase Reagent. Mixing was performed by inversion until the substrate was thoroughly dissolved. After mixing, the reagent was aliquoted into 15 ml tubes. In the afternoon (24 hrs post compound treatment), the DMEM+ medium in the 384 well plates were aspirated by Microplate Washer.\n(§7) Measuring firefly luciferase activity: 20 ul Dual-Glo Luciferase Reagent was added to the 384-well plates. The plates were protected from light to prevent interference with the assay. The plates were shaken for 1 min followed centrifuging plates at 1000 rpm for 30 seconds. After waiting at least 10 minutes, the firefly luminescence was measured by Envision.\n(§8) Measuring renilla luciferase activity: 20 ul Stop-Glo Reagent was added to the 384-well plates. The plates were shaken for 1 min and then centrifuged at 1000 rpm for 30 seconds. After waiting at least 10 minutes, the renilla luminescence was measured by Envision.\n(§9) Compound IC50 and maximum inhibition on the firefly luciferase and renilla luciferase activities were reported separately.", "units": {"IC50": "µM"}}
{"smiles": "CC(C)NC(=O)c1ccc2c(-c3ccc(C(F)(F)F)cc3)cc3scnc3c2c1", "note": "[Compound 68, N-isopropyl-5-(4-(trifluoromethyl)phenyl)naphtho[1,2-d]thiazole-8-carboxamide]", "IC50": "< 0.1"}
{"tested_on": "8XTBD luciferase reporter (YAP reporter) in HEK293T cells", "test": "YAP Reporter Assay", "assay_type": "cell-based", "details": "Homo sapiens, HEK-293T; HEK293T cells stably transfected with 8XTBD luciferase reporter and pRLTK; 24-hr incubation; top concentration 3 μM; read-out: Firefly Luciferase IC50", "procedure": "as §1, §2, §3, §4, §5, §6, §7, §8, §9", "units": {"IC50": "µM"}}
{"smiles": "O=C(NCc1ccnc(F)c1)c1ccc2c(-c3ccc(C(F)(F)F)cc3)cccc2c1", "note": "[Compound 211, N-((2-fluoropyridin-4-yl)methyl)-5-(4-(trifluoromethyl)phenyl)-2-naphthamide]", "IC50": "< 0.1"}
{"smiles": "Nc1cccc(CNC(=O)c2ccc3c(-c4ccc(C(F)(F)F)cc4)cccc3c2)c1", "note": "[Compound 235, N-(3-aminobenzyl)-5-(4-(trifluoromethyl)phenyl)-2-naphthamide]", "IC50": "< 0.1"}
{"smiles": "CS(=O)(=O)NC(=O)c1ccc2c(-c3ccc(C(F)(F)F)cc3)cccc2c1", "note": "[Compound 2, N-(methylsulfonyl)-5-(4-(trifluoromethyl)phenyl)-2-naphthamide]", "IC50": "< 0.1"}
{"smiles": "CN(C#N)CCNC(=O)c1ccc2c(-c3ccc(C(F)(F)F)cc3)cccc2c1", "note": "[Compound 125, N-(2-(N-methylcyanamido)ethyl)-5-(4-(trifluoromethyl)phenyl)-2-naphthamide]", "IC50": "< 0.1"}
{"smiles": "CC(C)NC(=O)c1ccc2c(-c3ccc(C(F)(F)F)cc3)cc3onnc3c2c1", "note": "[Compound 35, N-isopropyl-5-[4-(trifluoromethyl)phenyl]benzo[e][1,2,3]benzoxadiazole-8-carboxamide]", "IC50": "0.1 to 1"}
{"smiles": "O=C(O)c1cnc2c(-c3ccc(C(F)(F)F)cc3)cc(Cl)c(Cl)c2c1", "note": "[Compound 326, 5,6-dichloro-8-(4-(trifluoromethyl)phenyl)quinoline-3-carboxylic Acid]", "IC50": "< 0.1"}
{"smiles": "C[C@H](NC(=O)c1ccc2c(-c3ccc(C(F)(F)F)cc3)cccc2c1)c1cccc2nc[nH]c12", "note": "[Compound 174, N-[(1S)-1-(3H-benzimidazol-4-yl)ethyl]-5-[4-(trifluoromethyl)phenyl]naphthalene-2-carboxamide]", "IC50": "< 0.1"}
{"smiles": "COC(=O)c1ccc2c(-c3ccc(C(F)(F)F)cc3)cnc(O)c2c1", "note": "[Compound 14, Methyl 1-oxo-4-[4-(trifluoromethyl)phenyl]-2H-isoquinoline-7-carboxylate]", "IC50": "< 0.1"}
{"smiles": "O=C(NCc1ccccn1)c1ccc2c(-c3ccc(C(F)(F)F)cc3)cccc2c1", "note": "[Compound 239, N-(pyridin-2-ylmethyl)-5-(4-(trifluoromethyl)phenyl)-2-naphthamide]", "IC50": "< 0.1"}
{"smiles": "CC(=O)N1CC([C@@H](C)NC(=O)c2ccc3c(-c4ccc(C(F)(F)F)cc4)cccc3c2)C1", "note": "[Compound 199, (R)—N-(1-(1-acetylazetidin-3-yl)ethyl)-5-(4-(trifluoromethyl)phenyl)-2-naphthamide]", "IC50": "0.1 to 1"}
{"smiles": "COC(=O)/C=C/CCNC(=O)c1ccc2c(-c3ccc(C(F)(F)F)cc3)cccc2c1", "note": "[Compound 230, methyl (E)-5-[[5-[4-(trifluoromethyl)phenyl]naphthalene-2-carbonyl]amino]pent-2-enoate]", "IC50": "0.1 to 1"}
{"smiles": "COc1cc(-c2ccc(C(F)(F)F)cc2)c2ncc(C(=O)NC(C)C)cc2c1", "note": "[Compound 97, N-isopropyl-6-methoxy-8-[4-(trifluoromethyl)phenyl]quinoline-3-carboxamide]", "IC50": "< 0.1"}
{"smiles": "CNS(=O)(=O)c1ccc2c(-c3ccc(C(F)(F)F)cc3)cccc2c1", "note": "[Compound 3, N-methyl-5-(4-(trifluoromethyl)phenyl)naphthalene-2-sulfonamide]", "IC50": "< 0.1"}
{"smiles": "C[C@@H](NC(=O)c1ccc2c(-c3ccc(C(F)(F)F)cc3)cccc2c1)C1CN(C2CC2)C1", "note": "[Compound 320, (R)-N-(1-(1-cyclopropylazetidin-3-yl)ethyl)-5-(4-(trifluoromethyl)phenyl)-2-naphthamide]", "IC50": "0.1 to 1"}
{"smiles": "O=C(N[C@H](CCO)c1ccccn1)c1ccc2c(-c3ccc(C(F)(F)F)cc3)cccc2c1", "note": "[Compound 165, (R)—N-(3-hydroxy-1-(pyridin-2-yl)propyl)-5-(4-(trifluoromethyl)phenyl)-2-naphthamide]", "IC50": "1 to 3"}
{"smiles": "C[C@@H](NC(=O)c1ccc2c(-c3ccc(C(F)(F)F)cc3)cccc2c1)C1CN(C)C1", "note": "[Compound 153, N-[(1R)-1-(1-methylazetidin-3-yl)ethyl]-5-[4-(trifluoromethyl)phenyl]naphthalene-2-carboxamide]", "IC50": "0.1 to 1"}
{"smiles": "CC(C)NC(=O)c1ccc2c(-c3ccc(C(F)(F)F)cc3)cc(C3CC3)cc2c1", "note": "[Compound 43, 7-cyclopropyl-N-isopropyl-5-[4-(trifluoromethyl)phenyl]naphthalene-2-carboxamide]", "IC50": "< 0.1"}
{"smiles": "CC(C)NC(=O)c1ccc2c(-c3ccc(C(F)(F)F)cc3)ccc(Br)c2c1", "note": "[Compound 8, 8-bromo-N-isopropyl-5-(4-(trifluoromethyl)phenyl)-2-naphthamide]", "IC50": "< 0.1"}
{"smiles": "C[C@@H](NC(=O)c1ccc2c(-c3ccc(C(F)(F)F)cc3)cccc2c1)c1cccc2nc[nH]c12", "note": "[Compound 173, N-[(1R)-1-(3H-benzimidazol-4-yl)ethyl]-5-[4-(trifluoromethyl)phenyl]naphthalene-2-carboxamide]", "IC50": "0.1 to 1"}
{"smiles": "CC(=O)Nc1ccc(-c2ccc(C(F)(F)F)cc2)c2ccc(C(=O)NC(C)C)cc12", "note": "[Compound 17, 8-acetamido-N-isopropyl-5-(4-(trifluoromethyl)phenyl)-2-naphthamide]", "IC50": "< 0.1"}
{"smiles": "C[C@H](CCN(C)C)NC(=O)c1cnc2c(-c3ccc(C(F)(F)F)cc3)cccc2c1", "note": "[Compound 319, N-[(1R)-3-(Dimethylamino)-1-methyl-propyl]-8-[4-(trifluoromethyl)phenyl]quinoline-3-carboxamide]", "IC50": "0.1 to 1"}
{"smiles": "C[C@@H](NC(=O)c1ccc2c(-c3ccc(C(F)(F)F)cc3)cccc2c1)C1CC1", "note": "[Compound 290, (R)—N-(1-cyclopropylethyl)-5-(4-(trifluoromethyl)phenyl)-2-naphthamide]", "IC50": "< 0.1"}
{"smiles": "C[C@H](NC(=O)c1ccc2c(-c3ccc(C(F)(F)F)cc3)cccc2c1)c1cccc(N)n1", "note": "[Compound 128, (S)—N-(1-(6-aminopyridin-2-yl)ethyl)-5-(4-(trifluoromethyl)phenyl)-2-naphthamide]", "IC50": "0.1 to 1"}
{"smiles": "CC(C)(C)OC(=O)Nc1cccc(CNC(=O)c2ccc3c(-c4ccc(C(F)(F)F)cc4)cccc3c2)c1", "note": "[Compound 236, Tert-Butyl (3-((5-(4-(trifluoromethyl)phenyl)-2-naphthamido)methyl)phenyl)carbamate]", "IC50": "0.1 to 1"}
{"smiles": "CC(C)NC(=O)c1ccc2c(-c3ccc(C(F)(F)F)cc3)cc(N)cc2c1", "note": "[Compound 44, 7-amino-N-isopropyl-5-[4-(trifluoromethyl)phenyl]naphthalene-2-carboxamide]", "IC50": "< 0.1"}
{"smiles": "O=C(NC(CCO)CCO)c1cnc2c(-c3ccc(C(F)(F)F)cc3)cccc2c1", "note": "[Compound 160, N-(1,5-dihydroxypentan-3-yl)-8-(4-(trifluoromethyl)phenyl)quinoline-3-carboxamide]", "IC50": "1 to 3"}
{"smiles": "O=C(NCCC=CCO)c1ccc2c(-c3ccc(C(F)(F)F)cc3)cccc2c1", "note": "(stereo in doubt) [Compound 245, N-[(E)-5-hydroxypent-3-enyl]-5-[4-(trifluoromethyl)phenyl]naphthalene-2-carboxamide]", "IC50": "0.1 to 1"}
{"smiles": "CC(C)NC(=O)c1ccc2c(-c3ccc(C(F)(F)F)cc3)cc(Cl)cc2c1", "note": "[Compound 36, 7-chloro-N-isopropyl-5-(4-(trifluoromethyl)phenyl)-2-naphthamide]", "IC50": "< 0.1"}
